Holding throughout (assay type): cell-based
The target in assay [1] is T1, Transient receptor potential cation channel subfamily V member 3 (Homo sapiens, UniProt Q8NET8).
T1 sequence (Q8NET8 whole entry): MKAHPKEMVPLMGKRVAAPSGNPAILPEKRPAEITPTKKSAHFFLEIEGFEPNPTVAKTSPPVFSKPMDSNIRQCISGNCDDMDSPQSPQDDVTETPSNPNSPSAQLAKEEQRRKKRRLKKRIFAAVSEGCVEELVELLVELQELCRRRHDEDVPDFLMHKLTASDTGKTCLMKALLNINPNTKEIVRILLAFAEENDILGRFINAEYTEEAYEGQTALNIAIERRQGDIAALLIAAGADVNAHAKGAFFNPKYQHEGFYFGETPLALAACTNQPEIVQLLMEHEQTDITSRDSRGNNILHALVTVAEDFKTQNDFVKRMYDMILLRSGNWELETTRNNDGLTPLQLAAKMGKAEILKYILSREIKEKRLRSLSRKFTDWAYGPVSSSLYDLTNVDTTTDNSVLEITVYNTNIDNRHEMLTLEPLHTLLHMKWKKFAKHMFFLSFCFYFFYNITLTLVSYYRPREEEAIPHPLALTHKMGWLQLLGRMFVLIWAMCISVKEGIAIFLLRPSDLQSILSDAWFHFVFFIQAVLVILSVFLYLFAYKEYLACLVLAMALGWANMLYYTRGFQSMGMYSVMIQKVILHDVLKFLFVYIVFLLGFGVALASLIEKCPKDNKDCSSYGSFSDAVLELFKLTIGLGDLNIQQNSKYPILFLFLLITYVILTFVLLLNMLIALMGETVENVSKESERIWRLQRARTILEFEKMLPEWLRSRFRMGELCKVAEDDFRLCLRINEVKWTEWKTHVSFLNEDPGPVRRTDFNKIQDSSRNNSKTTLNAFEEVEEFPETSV
The experiment in a line: (§1) Radiometric Calcium Assay: The inhibition of TRPA1 receptor activation was measured as inhibition of allylisothiocyanate (AITC) induced cellular uptake of radioactive calcium. Test compounds were dissolved in DMSO to prepare 10 mM stock solution and then diluted using plain medium with 0.1% BSA and 1.8 mM CaCl2 to get desired concentration. Final concentration of DMSO in the reaction was 0.5% (v/v). Human TRPA1 expressing CHO cells were grown in F-12 DMEM medium with 10% FBS, 1% penicillin-streptomycin solution, and 400 ug/ml of G-418. Cells were seeded 24 h prior to the assay in 96 well plates so as to get 50,000 cells per well on the day of experiment. Cells were treated with test compounds for 10 min followed by addition of AITC at a final concentration of 30 micromolar and 5 uCi/ml 45Ca+2 for 3 min at 25° C. Cells were washed and lysed using buffer containing 1% Triton X-100, 0.1% deoxycholate and 0.1% SDS. Radioactivity in the lysate was measured in Packard Top count.

The target in assay [2] is Transient receptor potential cation channel subfamily V member 1 (Homo sapiens, UniProt Q8NER1). The assay is described as §1.
Sequence of Transient receptor potential cation channel subfamily V member 1 (Q8NER1 whole entry): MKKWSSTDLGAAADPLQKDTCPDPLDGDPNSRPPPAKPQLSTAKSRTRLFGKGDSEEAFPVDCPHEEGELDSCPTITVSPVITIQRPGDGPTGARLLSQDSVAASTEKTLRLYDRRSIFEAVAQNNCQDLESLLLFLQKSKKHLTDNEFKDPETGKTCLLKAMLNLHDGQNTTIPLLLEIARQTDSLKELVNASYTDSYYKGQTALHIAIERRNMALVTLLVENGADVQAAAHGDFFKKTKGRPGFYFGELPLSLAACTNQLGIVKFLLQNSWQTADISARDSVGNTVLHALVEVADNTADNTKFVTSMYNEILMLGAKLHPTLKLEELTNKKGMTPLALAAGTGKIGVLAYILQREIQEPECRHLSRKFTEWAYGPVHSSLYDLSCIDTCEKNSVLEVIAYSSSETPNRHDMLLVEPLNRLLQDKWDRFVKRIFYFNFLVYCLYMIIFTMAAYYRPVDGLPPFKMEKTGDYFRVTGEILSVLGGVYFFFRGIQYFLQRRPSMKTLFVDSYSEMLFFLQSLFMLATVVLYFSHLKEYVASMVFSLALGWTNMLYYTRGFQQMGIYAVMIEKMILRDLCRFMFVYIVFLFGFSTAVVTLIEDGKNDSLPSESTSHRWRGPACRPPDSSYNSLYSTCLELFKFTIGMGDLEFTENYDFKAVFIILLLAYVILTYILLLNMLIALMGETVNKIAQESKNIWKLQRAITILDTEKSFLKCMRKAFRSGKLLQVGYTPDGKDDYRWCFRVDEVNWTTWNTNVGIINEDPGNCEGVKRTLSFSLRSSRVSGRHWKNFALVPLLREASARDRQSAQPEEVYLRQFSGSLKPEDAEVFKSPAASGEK
The target in assay [3] is Transient receptor potential cation channel subfamily M member 8 (Homo sapiens, UniProt Q7Z2W7). The assay is described as §1.
Sequence of Transient receptor potential cation channel subfamily M member 8 (Q7Z2W7 whole entry): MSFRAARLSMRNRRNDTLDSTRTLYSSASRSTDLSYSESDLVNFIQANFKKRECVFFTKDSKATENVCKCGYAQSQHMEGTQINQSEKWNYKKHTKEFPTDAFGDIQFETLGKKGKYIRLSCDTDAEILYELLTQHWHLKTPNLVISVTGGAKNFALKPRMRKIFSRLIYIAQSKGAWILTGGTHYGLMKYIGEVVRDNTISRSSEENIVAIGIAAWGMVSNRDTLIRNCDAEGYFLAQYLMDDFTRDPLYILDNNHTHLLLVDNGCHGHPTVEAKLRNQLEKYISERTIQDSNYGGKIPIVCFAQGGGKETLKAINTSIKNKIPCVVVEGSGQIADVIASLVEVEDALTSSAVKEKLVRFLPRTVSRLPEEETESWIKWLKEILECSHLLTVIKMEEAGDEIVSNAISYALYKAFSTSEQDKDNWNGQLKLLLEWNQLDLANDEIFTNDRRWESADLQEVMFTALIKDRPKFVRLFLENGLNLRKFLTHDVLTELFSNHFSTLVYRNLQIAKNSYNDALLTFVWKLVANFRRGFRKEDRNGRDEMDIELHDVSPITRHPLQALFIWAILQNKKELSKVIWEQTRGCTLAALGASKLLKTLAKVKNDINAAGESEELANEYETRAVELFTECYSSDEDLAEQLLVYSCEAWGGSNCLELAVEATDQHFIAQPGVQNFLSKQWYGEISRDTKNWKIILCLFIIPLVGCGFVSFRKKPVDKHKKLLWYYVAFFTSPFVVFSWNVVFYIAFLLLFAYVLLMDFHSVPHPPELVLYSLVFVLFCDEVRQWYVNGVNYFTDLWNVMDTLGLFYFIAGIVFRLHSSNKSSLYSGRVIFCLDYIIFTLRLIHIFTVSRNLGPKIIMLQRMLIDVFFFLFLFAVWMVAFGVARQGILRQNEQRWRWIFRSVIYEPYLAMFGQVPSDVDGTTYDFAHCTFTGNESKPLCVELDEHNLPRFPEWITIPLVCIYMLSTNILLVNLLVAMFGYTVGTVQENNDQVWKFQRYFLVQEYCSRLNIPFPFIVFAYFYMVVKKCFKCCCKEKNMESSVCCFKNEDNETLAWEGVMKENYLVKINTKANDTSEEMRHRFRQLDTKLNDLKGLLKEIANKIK
The target of assay [4] is Transient receptor potential cation channel subfamily A member 1 (Homo sapiens, UniProt O75762). The assay is described as §1.
Sequence of Transient receptor potential cation channel subfamily A member 1 (O75762 whole entry): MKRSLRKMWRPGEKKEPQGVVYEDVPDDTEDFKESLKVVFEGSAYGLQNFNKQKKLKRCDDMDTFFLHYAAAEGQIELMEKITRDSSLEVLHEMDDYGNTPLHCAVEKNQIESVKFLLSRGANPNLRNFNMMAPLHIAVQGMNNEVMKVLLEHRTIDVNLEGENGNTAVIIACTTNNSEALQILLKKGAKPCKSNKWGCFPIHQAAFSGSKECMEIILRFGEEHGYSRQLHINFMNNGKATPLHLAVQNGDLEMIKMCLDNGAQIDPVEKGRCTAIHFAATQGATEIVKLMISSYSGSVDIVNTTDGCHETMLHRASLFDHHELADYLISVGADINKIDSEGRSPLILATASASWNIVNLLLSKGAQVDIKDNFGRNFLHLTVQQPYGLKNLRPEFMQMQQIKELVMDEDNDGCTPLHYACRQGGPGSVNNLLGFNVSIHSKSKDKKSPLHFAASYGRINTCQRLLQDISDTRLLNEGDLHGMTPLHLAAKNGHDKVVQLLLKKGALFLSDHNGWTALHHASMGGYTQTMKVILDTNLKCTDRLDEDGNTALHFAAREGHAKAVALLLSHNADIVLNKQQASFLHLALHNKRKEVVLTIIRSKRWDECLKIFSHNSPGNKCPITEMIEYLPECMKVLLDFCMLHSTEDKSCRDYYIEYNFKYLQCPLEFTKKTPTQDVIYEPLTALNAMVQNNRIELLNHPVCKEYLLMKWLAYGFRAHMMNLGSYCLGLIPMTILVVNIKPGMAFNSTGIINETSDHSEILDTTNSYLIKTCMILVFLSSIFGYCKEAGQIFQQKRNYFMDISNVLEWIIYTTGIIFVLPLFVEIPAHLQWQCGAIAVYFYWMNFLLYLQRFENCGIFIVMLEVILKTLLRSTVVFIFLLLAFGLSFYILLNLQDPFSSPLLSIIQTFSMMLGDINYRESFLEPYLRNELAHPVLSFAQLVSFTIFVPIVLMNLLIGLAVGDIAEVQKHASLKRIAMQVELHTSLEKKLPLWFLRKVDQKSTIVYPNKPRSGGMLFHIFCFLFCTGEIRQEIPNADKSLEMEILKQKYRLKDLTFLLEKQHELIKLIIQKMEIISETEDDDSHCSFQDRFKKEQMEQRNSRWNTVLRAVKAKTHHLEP
The target in assay [5] is Transient receptor potential cation channel subfamily V member 4 (Homo sapiens, UniProt Q9HBA0). The description is as §1.
Sequence of Transient receptor potential cation channel subfamily V member 4 (Q9HBA0 whole entry): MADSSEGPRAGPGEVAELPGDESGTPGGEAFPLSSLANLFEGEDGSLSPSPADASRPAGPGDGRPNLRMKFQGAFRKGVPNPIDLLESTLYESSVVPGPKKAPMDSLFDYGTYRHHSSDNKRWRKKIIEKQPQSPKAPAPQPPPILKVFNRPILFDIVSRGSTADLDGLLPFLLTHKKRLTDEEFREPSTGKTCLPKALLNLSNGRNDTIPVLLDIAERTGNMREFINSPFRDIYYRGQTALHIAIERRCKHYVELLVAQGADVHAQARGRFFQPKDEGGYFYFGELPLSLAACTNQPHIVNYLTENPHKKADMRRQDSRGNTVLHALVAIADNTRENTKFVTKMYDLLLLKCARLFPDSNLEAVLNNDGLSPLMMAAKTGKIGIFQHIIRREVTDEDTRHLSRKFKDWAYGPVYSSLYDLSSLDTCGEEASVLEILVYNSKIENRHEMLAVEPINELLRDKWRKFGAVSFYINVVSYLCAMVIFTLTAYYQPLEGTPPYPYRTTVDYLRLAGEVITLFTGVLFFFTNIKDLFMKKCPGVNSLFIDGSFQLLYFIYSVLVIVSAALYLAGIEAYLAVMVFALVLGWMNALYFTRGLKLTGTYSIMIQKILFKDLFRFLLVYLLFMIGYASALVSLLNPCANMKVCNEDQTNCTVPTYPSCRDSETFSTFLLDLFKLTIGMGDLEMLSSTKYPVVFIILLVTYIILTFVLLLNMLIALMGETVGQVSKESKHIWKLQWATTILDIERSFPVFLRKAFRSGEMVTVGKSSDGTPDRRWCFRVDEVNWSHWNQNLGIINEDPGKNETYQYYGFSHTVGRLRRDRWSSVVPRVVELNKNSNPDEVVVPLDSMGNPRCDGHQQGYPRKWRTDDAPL

Where only a bound is given, the exact number is not on record here.

The source of these data is ChEMBL document CHEMBL3886359, “Treatment of respiratory disorders using TRPA1 antagonists” (2015).

For `Cn1nc2c(c1CC(=O)/N=c1\scc(-c3ccc(F)c(C(F)(F)F)c3F)n1COP(=O)(O)O)c(=O)n(C)c(=O)n2C`, the IC50 in assay [1] was above 10000 nM; in assay [2] it was above 10 µM; in assay [3], above 10 µM; in assay [4] it was 1580 nM; in assay [5], above 10 µM.

As for `Cc1oc2c(c1CC(=O)Nc1nc(-c3ccc(OC(F)(F)F)c(Cl)c3)cs1)c(=O)n(C)c(=O)n2C`, the IC50 in assay [1] was 4450 nM; in assay [2], above 10 µM; in assay [3], above 10 µM; in assay [5], 5.74 µM.

Turning to `Cc1oc2c(c1CC(=O)/N=c1\scc(-c3ccc(OC(F)(F)F)c(Cl)c3)n1COC(=O)[C@@H](N)C(C)C)c(=O)n(C)c(=O)n2C`, the IC50 in assay [1] is 2810 nM; in assay [2] it was above 10 µM; in assay [3], above 10 µM; in assay [5], 2.35 µM.

Turning to `Cc1oc2c(c1CC(=O)/N=c1\scc(-c3ccc(OC(F)(F)F)c(Cl)c3)n1COP(=O)(O)O)c(=O)n(C)c(=O)n2C`, the IC50 in assay [1] is above 10000 nM; in assay [2] it was above 10 µM; in assay [3], above 10 µM; in assay [4], 1180 nM; in assay [5] it was above 10 µM.

Take `Cn1c(=O)c2c(CC(=O)Nc3nc(-c4ccc(C(F)(F)F)c(F)c4F)cs3)nsc2n(C)c1=O`: the IC50 was 2830 nM in assay [1], 17.7 µM in assay [2], above 10 µM in assay [3] and 0.132 µM in assay [5].

For `Cn1c(=O)c2c(CC(=O)Nc3nc(-c4ccc(F)c(C(F)(F)F)c4F)cs3)csc2n(C)c1=O`, the values for the IC50 in assay [1] and in assay [5] were 2520 nM and 3.04 µM, respectively.

Broadly, the IC50 is the concentration that inhibits the measured activity by half.
